Test results: US12606529B2, “Sulfur and amide tropolone inhibitors of nucleotidyl transferases and uses therefor” (Saint Louis University, priority 2019, dated 2026)
≈ marks a conversion by molar mass, not a printed value. Like-named read-outs stand apart in the source and are kept apart here.

Tests used:
in vitro = details: human, HepDES19 cells
Protocol: (§1) Cells used for toxicity and HBV studies. […] Cells were maintained in Dulbecco's modified Eagle's medium (DMEM)/F12 media supplemented with 10% fetal bovine serum (FBS) and 1% penicillin/streptomycin (P/S) with 1 μg/mL tetracycline. Synchronized expression of HBV pgRNA was induced by removing tetracycline from the culture medium.
(§2) Cytotoxicity Assays. Qualitative assessments of cytotoxicity were done visually by inspecting the cells in the primary screening assays. […] The next day the compounds were added at 0.78 to 100 μM in a final concentration of 1% (v/v) DMSO, and the cells were incubated for 24 hours under conditions identical to those employed for the viral replication inhibition assays. Mitochondrial toxicity was measured by incubating the cells with 0.25 mg/mL thiazolyl blue tetrazolium bromide (MTT, SigmaAldrich Chemical Co.), the cultures were incubated for 60 mM, metabolites were solubilized in acidic isopropanol, and absorbance was read at 570 nm. CC50 values were calculated by non-linear curve fitting using GraphPad Prism using the three-parameter variable-response log(inhibitor)-versus-response algorithm with the bottom value set to zero.

HSV-1 = assay: Anti-HSV-1 replication assay (Vero cells, plaque titer); assay type: cell-based, herpes simplex virus 1; details: for log reduction at 0.33 µM / log reduction at 1 µM / log reduction at 5 µM: Human alphaherpesvirus 1, Vero; for log reduction at 0.33 µM: compound at 0.33 μM, read-out: HSV-1 suppression 0.33 μM; for log reduction at 1 µM: compound at 1 μM, read-out: HSV-1 suppression 1 μM; for log reduction at 5 µM: compound at 5 μM, read-out: HSV-1 suppression 5 μM
human RNaseH1 = molecular target: T1, human RNaseH1 (Homo sapiens, UniProt O60930); assay: Biochemical inhibition of human RNaseH1 activity
T1 sequence (O60930 1-286): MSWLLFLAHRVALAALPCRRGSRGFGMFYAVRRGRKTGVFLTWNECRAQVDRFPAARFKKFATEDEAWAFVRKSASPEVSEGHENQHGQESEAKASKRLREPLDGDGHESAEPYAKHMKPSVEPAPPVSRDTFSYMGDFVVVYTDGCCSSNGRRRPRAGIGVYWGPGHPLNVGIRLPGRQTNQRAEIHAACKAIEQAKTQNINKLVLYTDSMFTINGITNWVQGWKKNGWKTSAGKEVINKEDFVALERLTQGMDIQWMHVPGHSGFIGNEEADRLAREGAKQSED
In short: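 Human enzyme (0.3 μg) with 100 nM RNA:DNA molecular-beacon substrate, 50 mM HEPES pH 8.0, 100 mM NaCl, 2 mM TCEP, compounds 0 to 500 μM, 5% DMSO; started with 5 mM MgCl2, fluorescence read at 37° C. HBV enzyme (C-terminally truncated MBP-HRHgtCΔ5) run in FRET format, monitored 90 min at 37° C., initial rates calculated.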

HBV replication = HBV replication inhibition in HepDES19 cells (strand-preferential qPCR); details: Hepatitis B virus, HBV replication, HepDES19 cells
Protocol: Cells used for toxicity and HBV studies.
HBV replication inhibition studies. HepDES19 cells were seeded in 96-well plates at 4×10^4 cells per well in the absence of tetracycline. Test compounds in a final DMSO concentration of 1% were applied to cells 48 hours after induction of HBV replication and cells were incubated with compounds for 72 hours. Cells were washed in 200 μL of phosphate buffered saline (PBS) and lysed in 150 μL of core lysis buffer (10 mM Tris pH 7.4, 1% Tween20, 150 mM NaCl). Cells were incubated at room temperate on an orbital shaker at 350 rpm for 40 minutes. Cell lysate was transferred to a 96 well polymerase chain reaction (PCR) plate and centrifuged at 3300×g for 5 minutes. The supernatant (50 μL) from the cell lysate was transferred to a 96-well PCR plate and mixed with 20 units of micrococcal nuclease and 100 μM CaCl2. The lysate was incubated for 1 hour at 37° C., and then the nuclease was inactivated at 70° C. for ten minutes. Qiagen protease (0.005 Anson units) was added to the lysate and the mixture was incubated overnight. Qiagen protease was then inactivated at 95° C. for ten minutes.
The crude lysate was used as the template for strand-preferential quantitative polymerase chain reaction (q-PCR) analysis. Quantitative PCR was performed with 40 cycles of 95° C. for 15 s and 60° C. for 1 minute employing the Kappa Probe Force universal PCR master mix.

[1] = tested on: C. neoformans var. grubii, KN99; assay: C. neoformans growth inhibition assay (limiting dilution); assay type: cell-based, Cryptococcus neoformans
In short: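 Growth read as OD650 after 48 h unshaken culture at 35° C, resuspending cells before reading; inoculum OD650 0.001 in pH 7.0 MOPS-buffered YNB, 0.2% dextrose, 1% DMSO. MIC defined at 80% growth inhibition versus vehicle, values averaged from two or more independent triplicate runs.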

HSV-2 = assay: Anti-HSV-2 replication assay (Vero cells, plaque titer); assay type: cell-based, herpes simplex virus 2; details: Table 3 sulfur compounds; compound at 5 μM
Protocol: HSV strains and cells used for HSV studies. […] HSV-1 and HSV-2 are de-identified clinical isolates from the Saint Louis University Hospital. Stocks were prepared after a single passage in cell culture and were titered by standard plaque assay (Knipe and Spang, 1982). Wild-type HSV-2 was laboratory strain 333. The TK-deficient mutant of HSV-2 strain 333, ΔTK−, contains a 180-bp KpnI-KpnI deletion in the UL23 open reading frame that abrogates TK activity (McDermott, et al, 1984). ΔTK− was the generous gift of Jim Smiley. Virus stocks were grown and titered on Vero cells (Morrison and Knipe, 1996).
Anti-HSV-1 and —HSV-2 replication assay. Compounds to be screened were diluted in PBS supplemented to contain 2% newborn calf serum and 1% glutamine and added in 100 μL volume to confluent cell monolayers in 24-well cluster plates Immediately thereafter HSV-1 and HSV-2, diluted in the supplemented PBS medium, were added to the wells in 50 μl volume such that the final concentration of compound was 50 μM and 5 μM and the multiplicity of infection was 0.1. The plates were incubated at 37° C. for 1 hour and then virus-containing inoculum was removed and the wells were washed once in PBS. Compounds, diluted to 50 μM and 5 μM in DMEM supplemented to contain 2% newborn calf serum and 1% each penicillin/streptomycin, were added at 0.5 mL/well. Plates were incubated at 37° C. an additional 23 hr, and then the plates were visually inspected through a phase contrast microscope for cytopathic effect, and for toxic effect. […] The entire contents of each well were collected by scraping. Samples were frozen at −80° C., and then subsequently thawed, sonicated, and infectious virus titer was determined by standard plaque assay on Vero cell monolayers. Because the compounds were dissolved at 10 mM in 100% DMSO, equivalent dilutions of DMSO were added to additional wells as a control for effects of the diluent. Each experiment was repeated once.

[2] = molecular target: HBV RNaseH (MBP-HRHgtCΔ5) (Hepatitis B virus genotype C subtype ayr, UniProt Q69028); assay: Biochemical inhibition of HBV RNaseH (FRET-based RNaseH assay); design: a genotype C isolate which lacks the C-terminal 35 amino acids of the HBV RNaseH domain that are predicted to be unstructured; made in house; details: HBV RNaseH IC50 (μM), Table 2 amides
HBV RNaseH (MBP-HRHgtCΔ5), sequence (Q69028 691-808, stated change not applied): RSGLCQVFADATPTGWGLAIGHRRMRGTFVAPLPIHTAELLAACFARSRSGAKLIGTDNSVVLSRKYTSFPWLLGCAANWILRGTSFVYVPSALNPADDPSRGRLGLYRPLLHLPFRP
Protocol: Biochemical inhibition of human RNaseH1 activity. Quantitative inhibition of the human RNaseH1 in the biochemical assays was assessed using a molecular beacon assay as described previously (Edwards et al., 2017). Recombinant human RNaseH 1 (0.3 μg) was incubated with 100 nM RNA:DNA substrate, 50 mM HEPES pH 8.0, 100 mM NaCl, 2 mM Tris(2-carboxyethyl)phosphine hydrochloride (TCEP), 0.05% Tween20, 5 units of RNaseOut, test compounds (0 to 500 μM), and 5% DMSO in a 100 μL reaction volume. The substrate was formed by annealing a complementary RNA oligonucleotide to a hairpin DNA oligonucleotide to hold the hairpin DNA oligonucleotide in an open conformation. The DNA oligonucleotide has a 5′ fluorescein reporter and a 3′ black hole quencher. […] Reactions were initiated with 5 mM MgCl2 and fluorescence was read using a Synergy HTS multi-mode plate reader at 37° C. […] Quantitative inhibition of the human RNaseH1 in biochemical assays was assessed using a FRET-based RNaseH assay under conditions previously reported for an RNaseH molecular beacon assay (Edwards et al., 2017). […] Cleavage of the RNA strand released the fluorescein from quenching, increasing fluorescence. Reactions were monitored for 90 min at 37° C. in a plate reader and initial reaction rates were calculated. […]

HepDES19 cells = details: Table 2 amides, MTT
Protocol: as §1, §2

E. coli = assay: Bacterial growth inhibition (E. coli); assay type: cell-based; details: Escherichia coli
[3] = CC50, Table 3 sulfur compounds, MTT
[4] = Table 3 sulfur compounds, values separated by / are repeats
[5] = Table 3 sulfur compounds, read-out: Hu RNaseH IC50
[6] = HepDES19, read-out: HBV EC50, Table 3 sulfur compounds
[7] = Cryptococcus neoformans, 48 h, Table 3 sulfur compounds, 48 h, 35° C., read-out: C. neoformans MIC80
[8] = Table 2 amides, values separated by / are repeats
[9] = Table 2 amides, read-out: HuRH1 IC50
[10] = Cryptococcus neoformans, 48 h, Table 2 amides, 48 h, 35° C., tested 0.19 to 50 μM, read-out: C. neoformans MIC80
[11] = Table 2 amides, 48 h, 35° C., tested 0.19 to 50 μM, read-out: C. neoformans MIC80

Row | SMILES | CC50 at 24 h (in vitro; [3]) [µM] | log reduction at 1 µM (HSV-1; [4]) | log reduction at 5 µM (HSV-1; [4]) | IC50 (human RNaseH1; [5]) [µM] | EC50 (HBV replication; [6]) [µM] | MIC80 [1, 7] [µM] | HSV-2 suppression 5 μM (HSV-2) [log10] | CC50 at 24 h (in vitro; CC50 (μM), Table 2 amides, MTT) [µM] | log reduction at 5 µM (HSV-1; [8]) | IC50 (human RNaseH1; [9]) [µM] | MIC80 [1, 10] [µM] | other results
1 | CCCCCCSc1cccc(O)c(=O)c1O [compound 840] | 21.5 | 1.52 | 3.69 | 72.8 | 50 | 1 (≈ 0.254 µg/mL) | 5.59 | – | – | – | – | log reduction at 0.33 µM (HSV-1; [4]): 0.271; MIC80 ([1]; Cryptococcus neoformans, read-out: MIC80 against C. neoformans): ≤ 1 µM
2 | Cc1cc(O)c(=O)c(O)cc1C(=O)Nc1ccc(OCc2ccccc2)cc1 [compound 837] | – | – | – | – | – | – | – | 8.7 ± 3.4 | 4.09 | 625 ± 451 | 4.5 (≈ 1.7 µg/mL) | IC50 [2]: 118 ± 88.7 µM
3 | O=c1c(O)cccc(Sc2cccc3ccccc23)c1O [compound 839] | 35.1 | -0.1 | 3.21 | 201 | 50 | 17 (≈ 5.04 µg/mL) | 4.2 | – | – | – | – | –
4 | Cc1cc(O)c(=O)c(O)cc1C(=O)N1CCNCC1 [compound 404] | – | – | – | – | – | – | – | – | – | – | – | CC50 (HepDES19 cells): 4.5 ± 1.4 µM; Reduction of HSV-1 titers / suppression of HSV-1 replication at 5 μM (HSV-1; 5 μM, plaque forming units (PFU)/ml): undetectable; MIC80 [1, 11]: 9 µM (≈ 2.38 µg/mL)
5 | Cc1ccc(Sc2cccc(O)c(=O)c2O)cc1 [compound 838] | 18.6 | 0.05 | 5.33 | 100 | 17 | 1 (≈ 0.26 µg/mL) | 5.09 | – | – | – | – | –
6 | Cc1cc(O)c(=O)c(O)cc1C(=O)NCc1ccc(OC(F)(F)F)cc1 [compound 804] | – | – | – | – | – | – | – | 30.1 ± 18 | 1.75 | 802 ± 397 | 6.8 (≈ 2.51 µg/mL) | IC50 [2]: 285 ± 226 µM; log reduction at 0.33 µM (HSV-1; Table 2 amides): 0.191; log reduction at 1 µM (HSV-1; [8]): 0.292
7 | Cc1cc(O)c(=O)c(O)cc1C(=O)N1CCNCC1 [compound 391] | – | – | – | – | – | – | – | – | 0.29 | – | – | CC50 at 24 h (in vitro; CC50): > 20 µM; CC50 (HepDES19 cells): 37.5 ± 4.8 µM; EC50 (HBV replication; HepDES19, 72 h, Table 2 amides, plus-polarity DNA, 72 h): 0.46 ± 0.2 µM; MIC80 [1, 11]: 40 µM (≈ 10.6 µg/mL)
8 | Cc1cc(O)c(=O)c(O)cc1C(=O)NCCc1ccccc1 [compound 710] | – | – | – | – | – | – | – | 4.5 ± 3 | 1.69 | 32.3 ± 3.2 | 2.5 (≈ 0.748 µg/mL) | log reduction at 1 µM (HSV-1; [8]): 0.15; MIC80 (E. coli): 30 µM (≈ 8.98 µg/mL)
